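Step 1: Grow cells in 96-well plates. Step 2: Expose to compound for 48 hours at 5 concentrations. Step 3: Interpolate endpoints linearly; if unreached, use highest concentration. GI50 marks 50% less growth. Definition used: TGI = concentration required for complete inhibition of growth.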
Legend:
Test in all cases: NCI-60 cell line screen, 48 h
[1] = system: 786-0 renal
[2] = system: A498 renal
[3] = system: A549 NSCLC
[4] = system: ACHN renal
[5] = system: BT-549 breast
[6] = system: CAKI-1 renal
[7] = system: CCRF-CEM leukemia
[8] = system: COLO 205 colon
[9] = system: DU-145 prostate
[10] = system: EKVX NSCLC
[11] = system: HCC-2998 colon
[12] = system: HCT-116 colon
[13] = system: HCT-15 colon
[14] = system: HL-60(TB) leukemia
[15] = system: HOP-62 NSCLC
[16] = system: HOP-92 NSCLC
[17] = system: HS 578T breast
[18] = system: HT29 colon
[19] = system: IGROV1 ovarian
[20] = system: K-562 leukemia
[21] = system: KM12 colon
[22] = system: LOX IMVI melanoma
[23] = system: M14 melanoma
[24] = system: MALME-3M melanoma
[25] = system: MCF7 breast
[26] = system: MDA-MB-231 breast
[27] = system: MDA-MB-435
[28] = system: MOLT-4 leukemia
[29] = system: NCI-H226 lung
[30] = system: NCI-H23 lung
[31] = system: NCI-H460 lung
[32] = system: NCI-H522 lung
[33] = system: NCI/ADR-RES ovarian
[34] = system: OVCAR-3 ovarian
[35] = system: OVCAR-4 ovarian
[36] = system: OVCAR-5 ovarian
[37] = system: OVCAR-8 ovarian
[38] = system: PC-3 prostate
[39] = system: RPMI-8226 leukemia
[40] = system: RXF 393 renal
[41] = system: SF-268 CNS
[42] = system: SF-295 CNS
[43] = system: SF-539 CNS
[44] = system: SK-MEL-2 melanoma
[45] = system: SK-MEL-28 melanoma
[46] = system: SK-MEL-5 melanoma
[47] = system: SK-OV-3 ovarian
[48] = system: SN12C renal
[49] = system: SNB-19 CNS
[50] = system: SR leukemia
[51] = system: SW-620 colon
[52] = system: T-47D breast
[53] = system: TK-10 renal
[54] = system: U251 CNS
[55] = system: UACC-257 melanoma
[56] = system: UO-31 renal
[57] = system: SNB-75 CNS
[58] = system: UACC-62 melanoma

## ClC1(c2ccccc2)c2ccc(Br)cc2-c2cc(Br)ccc21
[1]
  TGI: 30.2 µM
[2]
  TGI: 32.8 µM
[3]
  TGI: 34.3 µM
[4]
  TGI: 29.6 µM
[5]
  TGI: 37.7 µM
[6]
  TGI: 29.4 µM
[7]
  TGI: > 100 µM
[8]
  TGI: 33.7 µM
[9]
  TGI: 48.1 µM
[10]
  TGI: 32.3 µM
[11]
  TGI: 36.2 µM
[12]
  TGI: 28.5 µM
[13]
  TGI: 33.8 µM
[14]
  TGI: > 100 µM
[15]
  TGI: 33.4 µM
[16]
  TGI: 29.2 µM
[17]
  TGI: 50.3 µM
[18]
  TGI: 26 µM
[19]
  TGI: 30.2 µM
[20]
  TGI: > 100 µM
[21]
  TGI: 38.5 µM
[22]
  TGI: 33.2 µM
[23]
  TGI: 28.7 µM
[24]
  TGI: 32.5 µM
[25]
  TGI: 36 µM
[26]
  TGI: 30.7 µM
[27]
  TGI: 27.4 µM
[28]
  TGI: > 100 µM
[29]
  TGI: 36.4 µM
[30]
  TGI: 29.3 µM
[31]
  TGI: 27.4 µM
[32]
  TGI: 30.6 µM
[33]
  TGI: 34.3 µM
[34]
  TGI: 30.6 µM
[35]
  TGI: 27.3 µM
[36]
  TGI: 31.4 µM
[37]
  TGI: 35.8 µM
[38]
  TGI: 31.3 µM
[39]
  TGI: 64.8 µM
[40]
  TGI: 36.6 µM
[41]
  TGI: 39.7 µM
[42]
  TGI: 31.8 µM
[43]
  TGI: 33.3 µM
[44]
  TGI: 32.5 µM
[45]
  TGI: 35.8 µM
[46]
  TGI: 29.1 µM
[47]
  TGI: 39.1 µM
[48]
  TGI: 34.9 µM
[49]
  TGI: 31.3 µM
[50]
  TGI: 70.6 µM
[51]
  TGI: 36.3 µM
[52]
  TGI: 58.3 µM
[53]
  TGI: 34.8 µM
[54]
  TGI: 31.6 µM
[55]
  TGI: 34.9 µM
[56]
  TGI: 29.6 µM

## CN(C)CCCN=c1cc2c(=O)n(CCCN(C)C)c(=O)c3c(NCCCN(C)C)cc4c(O)n(CCCN(C)C)c(=O)c1c4c3-2
[1]
  GI50: 6.36 µM
  TGI: 87.4 µM
[2]
  GI50: 1.15 µM
  TGI: 3.92 µM
[3]
  GI50: 0.525 µM
  TGI: 2.63 µM
[4]
  GI50: 0.736 µM
  TGI: 12.4 µM
[5]
  GI50: 11.2 µM
  TGI: 31.4 µM
[6]
  GI50: 6.21 µM
  TGI: 29.4 µM
[7]
  GI50: 5.84 µM
  TGI: 54.8 µM
[8]
  GI50: 1.03 µM
  TGI: 2.62 µM
[9]
  GI50: 2.5 µM
  TGI: 9.51 µM
[10]
  GI50: 3.06 µM
  TGI: 21.3 µM
[11]
  GI50: 5.68 µM
  TGI: 22.9 µM
[12]
  GI50: 0.582 µM
  TGI: 5.52 µM
[13]
  GI50: 4.3 µM
  TGI: 46.4 µM
[14]
  GI50: 15.1 µM
  TGI: 60.5 µM
[15]
  GI50: 0.657 µM
  TGI: 5.19 µM
[16]
  GI50: 1.81 µM
  TGI: 14.2 µM
[17]
  GI50: 1.13 µM
  TGI: 5.03 µM
[18]
  GI50: 0.573 µM
  TGI: 3.58 µM
[19]
  GI50: 2.34 µM
  TGI: 8.29 µM
[20]
  GI50: 2.13 µM
  TGI: > 100 µM
[21]
  GI50: 2.36 µM
  TGI: 16.4 µM
[22]
  GI50: 2.01 µM
  TGI: 8.36 µM
[23]
  GI50: 5.87 µM
  TGI: 19.7 µM
[24]
  GI50: 1.27 µM
  TGI: 5.59 µM
[25]
  GI50: 0.409 µM
  TGI: 9.4 µM
[26]
  GI50: 3.02 µM
  TGI: 16.3 µM
[27]
  GI50: 3.41 µM
  TGI: 14.9 µM
[28]
  GI50: 7.11 µM
  TGI: 98.8 µM
[29]
  GI50: 0.258 µM
  TGI: 4.12 µM
[30]
  GI50: 5.39 µM
  TGI: 25.5 µM
[31]
  GI50: 0.395 µM
  TGI: 1.86 µM
[32]
  GI50: 0.781 µM
  TGI: 2.76 µM
[33]
  GI50: 12.3 µM
  TGI: > 100 µM
[34]
  GI50: 2.26 µM
  TGI: 7.88 µM
[35]
  GI50: 1.83 µM
  TGI: 7.9 µM
[36]
  GI50: 1.12 µM
  TGI: 4.09 µM
[37]
  GI50: 1.03 µM
  TGI: 11.4 µM
[38]
  GI50: 2.79 µM
  TGI: 34.1 µM
[39]
  GI50: 4.18 µM
  TGI: 46.1 µM
[40]
  GI50: 1.77 µM
  TGI: 4.44 µM
[41]
  GI50: 0.964 µM
  TGI: 9.33 µM
[42]
  GI50: 1.1 µM
  TGI: 9 µM
[43]
  GI50: 2.33 µM
  TGI: 11 µM
[44]
  GI50: 1.37 µM
  TGI: 5.08 µM
[45]
  GI50: 1.96 µM
  TGI: 4.79 µM
[46]
  GI50: 3.03 µM
  TGI: 11.2 µM
[47]
  GI50: 1.88 µM
  TGI: 6.93 µM
[48]
  GI50: 1.73 µM
  TGI: 30.9 µM
[49]
  GI50: 1.51 µM
  TGI: 19.7 µM
[57]
  GI50: 1.25 µM
  TGI: 3.68 µM
[50]
  GI50: 8.39 µM
  TGI: 56 µM
[51]
  GI50: 0.79 µM
  TGI: 15.6 µM
[52]
  GI50: 2.35 µM
  TGI: 16.9 µM
[53]
  GI50: 1.55 µM
  TGI: 5.95 µM
[54]
  GI50: 0.418 µM
  TGI: 11 µM
[55]
  GI50: 2.19 µM
  TGI: 7.35 µM
[58]
  GI50: 1.75 µM
  TGI: 4.86 µM
[56]
  GI50: 2.92 µM
  TGI: 12.9 µM
